According to patent publication US20230159532A1, “PARATHYROID HORMONE (PTH) RECEPTOR ANTAGONISTS AND USES THEREOF” (Crinetics Pharmaceuticals, Inc., priority 2021, published 2023):

Each compound was assayed against T1, human PTHR1 receptor (Homo sapiens, UniProt Q03431) (assay: Competitive antagonist binding assay for hPTH-R1 (radioactive competition binding, SPA beads)). Settings: human PTHR1 membranes, [125I]-[Nle8,18,Tyr34]-PTH(1-34) 0.2 nM, 90 minutes at room temperature; read-out: hPTHR1 Ki.
T1 construct: purchased Eurofins HTS030M
T1 sequence (Q03431 27-593): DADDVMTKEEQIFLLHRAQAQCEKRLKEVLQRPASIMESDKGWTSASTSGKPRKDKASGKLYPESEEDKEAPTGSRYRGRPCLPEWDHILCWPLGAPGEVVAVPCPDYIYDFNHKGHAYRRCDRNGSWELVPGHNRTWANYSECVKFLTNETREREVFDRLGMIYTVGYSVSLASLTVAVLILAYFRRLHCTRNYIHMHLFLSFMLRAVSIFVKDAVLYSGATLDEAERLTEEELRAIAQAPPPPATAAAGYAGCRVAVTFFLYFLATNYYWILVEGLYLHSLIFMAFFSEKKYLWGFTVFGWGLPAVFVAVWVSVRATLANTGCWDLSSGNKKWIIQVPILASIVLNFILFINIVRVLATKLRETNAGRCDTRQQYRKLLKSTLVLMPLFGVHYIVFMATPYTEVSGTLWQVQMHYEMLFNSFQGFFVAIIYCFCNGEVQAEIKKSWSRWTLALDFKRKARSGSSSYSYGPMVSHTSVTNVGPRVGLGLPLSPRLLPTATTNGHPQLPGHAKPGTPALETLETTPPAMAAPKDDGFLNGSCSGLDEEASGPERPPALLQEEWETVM
Procedure, shortened: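 Human PTHR1 membranes on SPA beads incubated 90 min at room temperature with compound (typically 0-10,000 nM final) and 0.2 nM [125I]-[Nle8,18,Tyr34]-PTH(1-34) in HEPES buffer with MgCl2, CaCl2, BSA, Triton X-100 and protease inhibitors, pH 7.4. Scintillation signal read; Ki values derived.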

`CCN1C(=O)N(c2c(F)cc(NCCN3CCNC(=O)C3)cc2F)c2cc(C#N)ccc2-c2cc(Cl)cnc21` [1-128, 4-chloro-10-(2,6-difluoro-4-{[2-(3-oxopiperazin-1-yl)ethyl]amino}phenyl)-8-ethyl-9-oxo-6,8,10-triazatricyclo[9.4.0.0^2,7]pentadeca-1(11),2(7),3,5,12,14-hexaene-13-carbonitrile] and `CCN1C(=O)N(c2c(F)cc(NCCN3CCOCC3)cc2F)c2cc(C#N)ccc2-c2cc(Cl)cnc21` [1-148, 4-chloro-10-(2,6-difluoro-4-{[2-(morpholin-4-yl)ethyl]amino}phenyl)-8-ethyl-9-oxo-6,8,10-triazatricyclo[9.4.0.0^2,7]pentadeca-1(11),2(7),3,5,12,14-hexaene-13-carbonitrile] fall in the same range of Ki: 100 to 1000 nM for the first, 100 to 1000 nM for the second.

`CCN1C(=O)N(c2c(F)cc(NCCNCCO)cc2F)c2cc(F)ccc2-c2cc(Cl)cnc21` [1-129, 4-chloro-10-[2,6-difluoro-4-({2-[(2-hydroxyethyl)amino]ethyl}amino)phenyl]-8-ethyl-13-fluoro-6,8,10-triazatricyclo[9.4.0.0^2,7]pentadeca-1(11),2(7),3,5,12,14-hexaen-9-one] and `CCN1C(=O)N(c2c(F)cc(NCCNC)cc2F)c2cc(F)ccc2-c2cc(Cl)cnc21` [1-130, 4-chloro-10-(2,6-difluoro-4-{[2-(methylamino)ethyl]amino}phenyl)-8-ethyl-13-fluoro-6,8,10-triazatricyclo[9.4.0.0^2,7]pentadeca-1(11),2(7),3,5,12,14-hexaen-9-one] cannot be ordered by Ki: less than 100 nM for the first, less than 100 nM for the second.

`CCN1C(=O)N(c2c(F)cc(NCCNCCN)cc2F)c2cc(C#N)ccc2-c2cc(Cl)cnc21` [1-131, 10-[4-({2-[(2-aminoethyl)amino]ethyl}amino)-2,6-difluorophenyl]-4-chloro-8-ethyl-9-oxo-6,8,10-triazatricyclo[9.4.0.0^2,7]pentadeca-1(11),2(7),3,5,12,14-hexaene-13-carbonitrile] and `CCNCCNc1cc(F)c(N2C(=O)N(CC)c3ncc(Cl)cc3-c3ccc(C#N)cc32)c(F)c1` [1-133, 4-chloro-8-ethyl-10-(4-{[2-(ethylamino)ethyl]amino}-2,6-difluorophenyl)-9-oxo-6,8,10-triazatricyclo[9.4.0.0^2,7]pentadeca-1(11),2(7),3,5,12,14-hexaene-13-carbonitrile] cannot be ordered by Ki: less than 100 nM for the first, less than 100 nM for the second.

`CCN1C(=O)N(c2c(F)cc(NCCNCCN(C)C)cc2F)c2cc(C#N)ccc2-c2cc(Cl)cnc21` [1-132, 4-chloro-10-{4-[(2-{[2-(dimethylamino)ethyl]amino}ethyl)amino]-2,6-difluorophenyl}-8-ethyl-9-oxo-6,8,10-triazatricyclo[9.4.0.0^2,7]pentadeca-1(11),2(7),3,5,12,14-hexaene-13-carbonitrile] and `CCN1C(=O)N(c2c(F)cc(NCCNCC(C)O)cc2F)c2cc(C#N)ccc2-c2cc(Cl)cnc21` (centres unmarked) [1-137, 4-chloro-10-[2,6-difluoro-4-({2-[(2-hydroxypropyl)amino]ethyl}amino)phenyl]-8-ethyl-9-oxo-6,8,10-triazatricyclo[9.4.0.0^2,7]pentadeca-1(11),2(7),3,5,12,14-hexaene-13-carbonitrile] cannot be ordered by Ki: less than 100 nM for the first, less than 100 nM for the second.

`CCN1C(=O)N(c2c(F)cc(NCCNCCO)cc2F)c2cc(Cl)cc(C#N)c2-c2cc(F)cnc21` [1-134, 13-chloro-10-[2,6-difluoro-4-({2-[(2-hydroxyethyl)amino]ethyl}amino)phenyl]-8-ethyl-4-fluoro-9-oxo-6,8,10-triazatricyclo[9.4.0.0^2,7]pentadeca-1(11),2(7),3,5,12,14-hexaene-15-carbonitrile] and `CCN1C(=O)N(c2c(F)cc(NCCNCCO)cc2F)c2ccccc2-c2cc(Cl)cnc21` [1-142, 4-chloro-10-[2,6-difluoro-4-({2-[(2-hydroxyethyl)amino]ethyl}amino)phenyl]-8-ethyl-6,8,10-triazatricyclo[9.4.0.0^2,7]pentadeca-1(11),2(7),3,5,12,14-hexaen-9-one] cannot be ordered by Ki: less than 100 nM for the first, less than 100 nM for the second.

`CCN1C(=O)N(c2c(F)cc(NCCNC)cc2F)c2ccccc2-c2cc(Cl)cnc21` [1-135, 4-chloro-10-(2,6-difluoro-4-{[2-(methylamino)ethyl]amino}phenyl)-8-ethyl-6,8,10-triazatricyclo[9.4.0.0^2,7]pentadeca-1(11),2(7),3,5,12,14-hexaen-9-one] and `CCN1C(=O)N(c2c(F)cc(NCCNC(C)CO)cc2F)c2cc(C#N)ccc2-c2cc(Cl)cnc21` (centres unmarked) [1-149, 4-chloro-10-[2,6-difluoro-4-({2-[(1-hydroxypropan-2-yl)amino]ethyl}amino)phenyl]-8-ethyl-9-oxo-6,8,10-triazatricyclo[9.4.0.0^2,7]pentadeca-1(11),2(7),3,5,12,14-hexaene-13-carbonitrile] cannot be ordered by Ki: less than 100 nM for the first, less than 100 nM for the second.

First: CCN1C(=O)N(c2c(F)cc(N3CCNCC3)cc2F)c2cc(C#N)ccc2-c2cc(Cl)cnc21 [1-136, 4-chloro-10-[2,6-difluoro-4-(piperazin-1-yl)phenyl]-8-ethyl-9-oxo-6,8,10-triazatricyclo[9.4.0.0^2,7]pentadeca-1(11),2(7),3,5,12,14-hexaene-13-carbonitrile]
Second: CCN1C(=O)N(c2c(F)cc(N3CCCNCC3)cc2F)c2cc(C#N)ccc2-c2cc(Cl)cnc21 [1-143, 4-chloro-10-[4-(1,4-diazepan-1-yl)-2,6-difluorophenyl]-8-ethyl-9-oxo-6,8,10-triazatricyclo[9.4.0.0^2,7]pentadeca-1(11),2(7),3,5,12,14-hexaene-13-carbonitrile]
The Ki of the first is higher: 100 to 1000 nM for the first, less than 100 nM for the second.

`CCN1C(=O)N(c2c(F)cc(NCCNCC(C)(C)O)cc2F)c2cc(C#N)ccc2-c2cc(Cl)cnc21` [1-138, 4-chloro-10-[2,6-difluoro-4-({2-[(2-hydroxy-2-methylpropyl)amino]ethyl}amino)phenyl]-8-ethyl-9-oxo-6,8,10-triazatricyclo[9.4.0.0^2,7]pentadeca-1(11),2(7),3,5,12,14-hexaene-13-carbonitrile] and `CCN1C(=O)N(c2c(F)cc(NCCNCCS(=O)(=O)O)cc2F)c2cc(C#N)ccc2-c2cc(Cl)cnc21` [1-141, 2-({2-[(4-{4-chloro-13-cyano-8-ethyl-9-oxo-6,8,10-triazatricyclo[9.4.0.0^2,7]pentadeca-1(11),2(7),3,5,12,14-hexaen-10-yl}-3,5-difluorophenyl)amino]ethyl}amino)ethane-1-sulfonic acid] cannot be ordered by Ki: less than 100 nM for the first, less than 100 nM for the second.

`CCC(CO)NCCNc1cc(F)c(N2C(=O)N(CC)c3ncc(Cl)cc3-c3ccc(C#N)cc32)c(F)c1` (centres unmarked) [1-139, 4-chloro-10-[2,6-difluoro-4-({2-[(1-hydroxybutan-2-yl)amino]ethyl}amino)phenyl]-8-ethyl-9-oxo-6,8,10-triazatricyclo[9.4.0.0^2,7]pentadeca-1(11),2(7),3,5,12,14-hexaene-13-carbonitrile] and `CCN1C(=O)N(c2c(F)cc(NCCNCCNC(N)=O)cc2F)c2cc(C#N)ccc2-c2cc(Cl)cnc21` [1-140, [2-({2-[(4-{4-chloro-13-cyano-8-ethyl-9-oxo-6,8,10-triazatricyclo[9.4.0.0^2,7]pentadeca-1(11),2(7),3,5,12,14-hexaen-10-yl}-3,5-difluorophenyl)amino]ethyl}amino)ethyl]urea] cannot be ordered by Ki: less than 100 nM for the first, less than 100 nM for the second.

`CCN1C(=O)N(c2c(F)cc(N3CCN(CCO)CC3)cc2F)c2cc(C#N)ccc2-c2cc(Cl)cnc21` [1-144, 4-chloro-10-{2,6-difluoro-4-[4-(2-hydroxyethyl)piperazin-1-yl]phenyl}-8-ethyl-9-oxo-6,8,10-triazatricyclo[9.4.0.0^2,7]pentadeca-1(11),2(7),3,5,12,14-hexaene-13-carbonitrile] and `CCN1C(=O)N(c2c(F)cc(N(C)CCNC)cc2F)c2cc(C#N)ccc2-c2cc(Cl)cnc21` [1-146, 4-chloro-10-(2,6-difluoro-4-{methyl[2-(methylamino)ethyl]amino}phenyl)-8-ethyl-9-oxo-6,8,10-triazatricyclo[9.4.0.0^2,7]pentadeca-1(11),2(7),3,5,12,14-hexaene-13-carbonitrile] cannot be ordered by Ki: less than 100 nM for the first, less than 100 nM for the second.

`CCN1C(=O)N(c2c(F)cc(NCC3CNC3)cc2F)c2cc(C#N)ccc2-c2cc(Cl)cnc21` [1-145, 10-(4-{[(azetidin-3-yl)methyl]amino}-2,6-difluorophenyl)-4-chloro-8-ethyl-9-oxo-6,8,10-triazatricyclo[9.4.0.0^2,7]pentadeca-1(11),2(7),3,5,12,14-hexaene-13-carbonitrile] and `CCN1C(=O)N(c2c(F)cc(NC[C@H]3COCCN3)cc2F)c2cc(C#N)ccc2-c2cc(Cl)cnc21` [1-147, 4-chloro-10-[2,6-difluoro-4-({[(3S)-morpholin-3-yl]methyl}amino)phenyl]-8-ethyl-9-oxo-6,8,10-triazatricyclo[9.4.0.0^2,7]pentadeca-1(11),2(7),3,5,12,14-hexaene-13-carbonitrile] cannot be ordered by Ki: less than 100 nM for the first, less than 100 nM for the second.

In the case of `CCN1C(=O)N(c2c(F)cc(NCCNCCNS(C)(=O)=O)cc2F)c2cc(C#N)ccc2-c2cc(Cl)cnc21` [1-150, N-[2-({2-[(4-{4-chloro-13-cyano-8-ethyl-9-oxo-6,8,10-triazatricyclo[9.4.0.0^2,7]pentadeca-1(11),2(7),3,5,12,14-hexaen-10-yl}-3,5-difluorophenyl)amino]ethyl}amino)ethyl]methanesulfonamide], the Ki is reported as less than 100 nM.
